Experimental data published in PMC9610617, “Anti-HIV Ermiasolides from Croton megalocarpus” (Molecules, 2022).
Values after ≈ are worked out from the molar mass of the structure shown. Values joined by “and” are separate entries in the source; they are usually repeats but may differ in a detail not shown here. Identical values can stand only once. Like-named read-outs stand apart in the source and are kept apart here.

How the values were obtained:
[1] = test system: human T-lymphocytic MT-4 cells; test: in vitro; details: MT-4 cells, 5 days, MTT, mean ± S.E.M, n = 3; for MNTC, maximum nontoxic concentration: concentration with cell viability above 80% (CC20)
From the text: (§1) In this study, human T-lymphocyte MT-4 cells (ARP-120) were obtained from the National Institute of Health (NIH) HIV Reagent Program, Division of AIDS, National Institute of Allergy and Infectious Diseases (NIAID), NIH; donated by Dr. Douglas Richman. Human T-lymphocytic MT-4 cells express CD4, CXCR4 and CCR5 and are used for cytotoxicity inhibition assays for antiviral drugs. The vials containing frozen MT-4 cells were retrieved from the liquid nitrogen tank and rapidly thawed. In a tissue culture laminar flow hood, the exterior of the vials was decontaminated by spraying 70% ethanol. […] The CCM was sterilized with a 0.22 µm membrane filter before use. The cultures were incubated at 37 °C in a humidified incubator with atmospheric conditions of 5% CO2. […] The cell count and viability were measured by the trypan blue dye exclusion technique.
(§2) The cytotoxicity test was conducted to evaluate the cytotoxicity of the plant extracts by measuring cell death caused by the plant extracts. The assay was conducted using an MTT colorimetric assay as described by. The MTT assay is based on the reduction of the yellow-colored tetrazolium salt MTT 3-(4,5-dimethylthiazol-2-yl)-2,5-diphenyltetrazolium bromide) by NAD(P)H-dependent cellular oxidoreductase enzymes to an insoluble dark-blue colored formazan that can be measured spectrophotometrically. Formazan production indicates the number of viable cells; therefore, an increase or decrease in cellular viability results in a change in the amount of formazan formed, which indicates the degree of cellular cytotoxicity (CC50) caused by the plant extract.
(§3) MTT (3-(4,5-dimethylthiazol-2-yl)-2,5-diphenyl tetrazolium bromide) was dissolved in PBS to obtain a final concentration of 5 mg/mL and filtered to sterilize and remove insoluble residue. The assay was carried out in 96-well, flat-bottomed microtiter plates. To each well, 200 µL of MT-4 cells (1 × 10^5 cells) in growth media was added. The plates were preincubated for 24 h at 37 °C to allow stabilization. Then, 50 μL of the test compounds (at a concentration of 4 mg/mL) were added to the first column of the well. With a multichannel pipette, 50 μL was transferred (in triplicate) from the wells labeled 1 to wells labeled 2, and such transfers were continued (serial dilution), moving from left to right, changing tips prior to mixing contents of the next column of wells. Finally, 50 μL was discarded from the wells in column 12. […] Each dilution was tested in triplicate. The negative control (NC) wells contained 50 µL of MT-4 cells in 0.5% DMSO [39].
(§4) A 96-well microtiter plate containing the test compounds, positive and negative controls was incubated at 37 °C in a humidified atmosphere of 5% CO2 for 5 days. After incubation, 20 μL of MTT reagent (5 mg/mL MTT in phosphate-buffered saline) was added to each test well and control well. The plate was further incubated at 37 °C in a CO2 incubator for 4 h. After 4 h of incubation, 100 μL of DMSO was added to dissolve the dark-blue formazan crystals from surviving cells. After the formazan crystals were dissolved completely, the resulting optical density (OD) readings were measured relative to the controls on an ELISA plate reader at 570 nm at a reference wavelength of 620 nm. […] The concentration that determined cell viability above 80% (CC20) was chosen as the maximum non-toxic concentration (MNTC).

HIV-1IIIB = test: Anti-HIV activity: inhibition of HIV-induced cytopathic effect in infected MT-4 cells (MTT); assay type: cell-based, Human immunodeficiency virus type 1; details: for IC50: Human immunodeficiency virus 1, MT4, 120 h; for SI, selective index: ratio CC50 (MT-4) / IC50 (HIV-1IIIB)
Description: Human immunodeficiency virus type 1 (HIV-1IIIB) strain was obtained from the NIH HIV Reagent Program, Division of AIDS, NIAID, NIH. Dr. Robert Gallo donated human immunodeficiency virus-1 IIIB (ARP-398). HIV-1IIIB is highly capable of replicating in human T cell lines and appears to be well adapted for in vitro culture in T cells. The frozen HIV-1IIIB vials were thawed by immersion in room temperature water, and the vial was swirled until viruses were thawed. Then, 400 µL of the virus was transferred to 75 cm^2 tissue culture flasks (T75) containing 10 mL of 1 × 10^5 pelleted MT4 cells/mL, vortexed and incubated at 37 °C for 1 hr for virus adsorption. After 1 hr, 20 mL of RPMI-1640 was added gently and mixed with vortexing. The cells were then pelleted by centrifuging at 1500 rpm for 5 min. The pelleted cells were then washed and resuspended in 30 mL RPMI 1640 with L-glutamine and 20% fetal bovine serum in a T75 flask, incubated at 37 °C and monitored for the development of cytopathic effects (CPEs).
The virus infectivity test was performed to determine the infectious titer of the virus, which can cause cytopathic effects (CPE) in tissue culture over a reasonable period of 3 to 10 days while cells in culture remain viable. In addition, this procedure was performed to quantify the amount of virus required to produce a cytopathic effect in 50% of cell culture replicates (TCID50). CPE induced by the virus was observed under a microscope after 3–4 days. The TCID50 was then calculated as described by. For the anti-HIV activity testing, 640 µL of HIV-1IIIB virus at 1.26 × 10^8 TCID50/mL was used to infect 1 × 10^8 cell/mL. All procedures were carried out following biosafety guidelines defined in the BMBL, NIH-CDC HHS Publication No. (CDC) 21-1112 [44].
MT-4 cells suspended at 1 × 10^8 cells/mL were infected with 640 µL of HIV-1IIIB virus at 1.26 × 10^8 TCID50/mL as described in above. After infection, 200 µL HIV-infected MT-4 cells (1 × 10^5 cells/well) in growth media were added to each well. The plates were preincubated for 24 h at 37 °C to allow stabilization. Then, 50 μL of the test compounds (at a concentration of 4 mg/mL) were added to the first column of the well. With a multichannel pipette, 50 μL was transferred (in triplicate) from the wells labeled 1 to wells labeled 2. Such transfers were continued (serial dilution), moving from left to right, changing tips prior to mixing contents of the next column of wells. Finally, 50 μL was discarded from the wells in column 12. Different concentrations ([…]) of test compounds were prepared through serial dilution. Each dilution was tested in triplicate. The microtiter plates were incubated at 37 °C in a 5% CO2 incubator for 5 days. […] After 5 days of incubation, cell viability was determined by the MTT assay as described by.
A dose-response curve was plotted to calculate the concentrations that reduced viral replication by 50% (IC50). […] The efficacy of the test compounds, was determined by calculating the viral inhibition rate (EmaxAV) using Equation (1), as previously described by.

in vitro = details: human, MT-4 T-lymphocytic cells
From the text: as §1, §2, §3, §4

[2] = HIV-1IIIB-infected MT-4 cells, 5 days, MTT, mean ± S.E.M, n = 3
[3] = read-out: IC50, 50% antiviral effect concentration, HIV-1IIIB-infected MT-4 cells, 5 days, MTT, mean ± S.E.M, n = 3

Row | SMILES | MNTC, maximum nontoxic concentration [1] [µg/mL] | CC50, 50% cytotoxic concentration [1] [µg/mL] | EmaxC, maximum cytotoxic effect % [1] [%] | EmaxAV, maximum antiviral effect % (viral inhibition rate) (HIV-1IIIB; [2]) | IC50 (HIV-1IIIB; HIV-1IIIB-infected MT-4 cells, 5 days, MTT, mean ± S.E.M, n = 3, read-out: IC50, 50% antiviral effect concentration) [µg/mL] | SI, selective index (HIV-1IIIB) | IC50 (HIV-1IIIB; [3]) [µg/mL] | CC50 at 5 days (in vitro) [µg/mL] | IC50, 50% antiviral effect concentration (HIV-1IIIB; [2]) [µg/mL]
1 | Nc1nc(NC2CC2)c2ncn([C@H]3C=C[C@@H](CO)C3)c2n1 [ABC, abacavir, reference compound] | 0.18 ± 0.03 | 0.26 ± 0.00 (≈ 0.908 µM) | 17.83 ± 0.57 | 58.67 ± 0.43% | 0.05 ± 0.031 (≈ 0.175 µM) | 5.0 |  |  | 
2 | Cc1cn([C@H]2C[C@H](N=[N+]=[N-])[C@@H](CO)O2)c(=O)[nH]c1=O [AZT, zidovudine, reference compound] |  |  |  | 83.5 ± 0.57% |  |  | 0.002 (≈ 0.00748 µM) |  | 
3 | CO[C@@]12C[C@]3(C)CCC[C@H](C)[C@@]3(O)CC1=C(C)C(=O)O2 [Compound 1, 5β-Hydroxy-8α-methoxy eudesm-7(11)-en-12,8-olide] | 41.84 ± 0.11 |  | 62.21 ± 0.67 | 93% and 93.4 ± 0.60% |  | 39,872.3 | 0.002 (≈ 0.00713 µM) | 96.77 ± 0.44 (≈ 345 µM) | 
4 | CC1=C2C[C@]3(O)[C@@H](C)CCC[C@@]3(C)C[C@@]2(O)OC1=O [Compound 2, 5β,8α-Dihydroxy eudesm-7(11)-en-12,8-olide] | 4.973 ± 0.25 |  | 81.59 ± 0.41 | 69.5% and 69.51 ± 0.26% |  | 25,339.5 | 0.002 (≈ 0.00751 µM) | 38.4 ± 0.63 (≈ 144 µM) | 
5 | CC1=C2C[C@]3(O)[C@@H](C)CCC[C@@]3(C)C[C@@H]2OC1=O [Compound 3, 5β-Hydroxy-8H-β-eudesm-7(11)-en-12,8-olide] | 64.93 ± 0.26 |  | 65.00 ± 0.01 | 77.5% and 77.46 ± 0.93% |  | 3384.4 | 0.04 (≈ 0.16 µM) | 148.1 ± 0.05 (≈ 592 µM) | 0.044 ± 0.01 (≈ 0.176 µM)
6 | Cc1ccnc2c1NC(=O)c1cccnc1N2C1CC1 [NVP, Nevirapine, reference compound] | 0.57 ± 0.0 | 0.82 ± 0.0 (≈ 3.08 µM) | 39.13 ± 0.65 | 72.53 ± 0.47% |  | 3.5 | 0.24 ± 0.09 (≈ 0.901 µM) |  | 
7 | C[C@H](Cn1cnc2c(N)ncnc21)OCP(=O)(O)O [TDF, tenofovir] | 4.92 ± 0.71 | 6.73 ± 0.24 (≈ 23.4 µM) | 13.17 ± 0.43 | 80.55 ± 0.46% |  |  | 0.04 ± 0.01 (≈ 0.139 µM) |  | 
